Source: patent US20080280997A1, “Novel Pharmaceutical or Cosmetic Carriers Containing Cyclic Acetals” (GATTEFOSSE SAS, priority 2004, published 2008)
Entries after “also recorded” stand apart in the source; their conditions may differ.

Legend:
Assay type in all cases: physicochemical
Miscibility in water = test: Miscibility in water
Source text: The BDM molecule is produced following the same process as that used in example 1 (without solvents), using pentanal and glycerol. The substance obtained is confirmed by GC-MS analysis. Its water solubility is approximately 2 g in 100 g water. Beyond that, turbidity appears.

Solubility in oils = details: before turbidity appears
[1] = Solubilisation of UV filters with ETP, EDM and PDM; details: for Solubility of 1,2-butyl methoxydibenzoylmethane in the solvent: UV filter 1,2-butyl methoxydibenzoylmethane; for Solubility of Benzophenone-3 in the solvent: UV filter Benzophenone-3
Procedure: 4/ Solubilisation of Filters with ETP, EDM and PDM
The solubility of two organic UV filters (benzophenone-3 et 1,2-butyl methoxydibenzoylmethane) are assessed in ETP, EDM and PDM.
• homogenise the mixture for 30 seconds in a vortex mixer, • apply ultrasounds for 15 minutes (repeat if the filter is not miscible up to a maximum of 60 minutes), • for the following percentages, an identical quantity of UV filter is always added to a set initial quantity of solvent.
Solubility is expressed in g of filter soluble in 100 g of final solution.

[2] = Compatibility of EDM with gelling agents
Source text: We tested the influence of 5% EDM in gels produced using gelling agents with different chemical natures.

[3] = Solubility of EDM in oils, alcohols and water
Source text: 3/ Solubility of EDM in Oils and Alcohols
The solubility of EDM is studied in various oils, alcohols and water. The solubility results are expressed in g of EDM incorporable into 100 g of oil or ester before turbidity appears.

[4] = Stability of the pH of an EDM solution; details: 5% EDM
Procedure: The stability of solutions at different pHs after adding 5% EDM was studied.
The different solutions were prepared: • using citric acid and Na2HPO4 for pHs between 3 and 7, • using boric acid, KCl and NaOH for pHs between 8 and 10.

[5] = Solubilisation of non-water soluble active ingredients in water assisted by solvent
Source text: Five hydrophobic active ingredients were solubilised in water using EDM.
The following table indicates what mass of solvent (g) must be added to solubilise 1 g of a mixture comprising 98% water and 2% active ingredient.
The smaller the quantity of solvent to be added, the greater its solubilising power.

[6] = Solubilisation of active ingredients in EDM; details: solubility in EDM
Procedure: 5/ Solubilisation of Active Ingredients in EDM
The solubility of the various active ingredients in EDM was studied. It is expressed in g of active ingredient soluble in 100 ml of EDM.

[7] = buffer solution initial pH 4.25
[8] = buffer solution initial pH 6.15
[9] = buffer solution initial pH 7.15
[10] = buffer solution initial pH 10.0
[11] = active ingredient Bisabolol nat.
[12] = active ingredient Eusolex 4360 (Benzophenone 3)
[13] = active ingredient HE eucalyptus (Eucalyptus globulus leaf oil)
[14] = active ingredient Vitamin E (Tocopherol)

Compound: CCC1(CO)COC(C)OC1 (centres unmarked) [ETP, 2-methyl-5-ethyl-5-hydroxymethyl-1,3-dioxane]
- Miscibility in water (Miscibility in water): Miscible
- Solubility in Medium-chain triglyceride (MCT) (Solubility in oils): >100 g of solvent solubilised in 100 g of oil or ester
- Solubility in Octyldodecanol myristate (ODM) (Solubility in oils): 100 g of solvent solubilised in 100 g of oil or ester
- Solubility in Sunflower oil (Solubility in oils): >100 g of solvent solubilised in 100 g of oil or ester
- Solubility of 1,2-butyl methoxydibenzoylmethane in the solvent [1]: 5 g of filter soluble in 100 g of final solution
- Solubility of Benzophenone-3 in the solvent [1]: 35 g of filter soluble in 100 g of final solution

Compound: 2-ethyl-4-hydroxymethyl-1,3-dioxolane and 2-ethyl-1,3-dioxan-5-ol [EDM]
- Miscibility in water (Miscibility in water): Miscible
- Viscosity variation ([2]; 5% EDM in gels of Blanose 7HF, Jaguar HP 105, Keltrol T, Natrosol 250HX (cell wraps: Small variation)): Small
- Viscosity drop ([2]; 5% EDM in gels of Novemer EC-1, Sepigel 305): Drop >30%
- Breaking of gels on adding EDM ([2]; 5% EDM, gelling agents of the different families tested): none of the gels formulated is broken
- EDM mass ([3]; in Apricot kernel oil): >100 g of EDM incorporable into 100 g of oil or ester
- EDM mass ([3]; in Arlamol E (PPG-15 Stearyl Ether)): >100 g of EDM incorporable into 100 g of oil or ester
- EDM mass ([3]; in Butylene Glycol): >100 g of EDM incorporable into 100 g of oil or ester
- EDM mass ([3]; in Castor oil): >100 g of EDM incorporable into 100 g of oil or ester
- EDM mass ([3]; in DPPG (Propylene glycol dipelargonate)): >100 g of EDM incorporable into 100 g of oil or ester
- EDM mass ([3]; in Glycerine): >100 g of EDM incorporable into 100 g of oil or ester
- EDM mass ([3]; in IPM (Isopropyl myristate)): >100 g of EDM incorporable into 100 g of oil or ester
- EDM mass ([3]; in Labrafac CC (Caprylic/capric triglyceride)): >100 g of EDM incorporable into 100 g of oil or ester
- EDM mass ([3]; in PEG-300): >100 g of EDM incorporable into 100 g of oil or ester
- EDM mass ([3]; in Propylene Glycol): >100 g of EDM incorporable into 100 g of oil or ester
- EDM mass ([3]; in Tegosoft TN (C12/C15 alkyl benzoate)): >100 g of EDM incorporable into 100 g of oil or ester
- EDM mass ([3]; in Water): >100 g of EDM incorporable into 100 g of oil or ester
- Solubility in Medium-chain triglyceride (MCT) (Solubility in oils): >100 g of solvent solubilised in 100 g of oil or ester
- Solubility in Octyldodecanol myristate (ODM) (Solubility in oils): 50 g of solvent solubilised in 100 g of oil or ester
- Solubility in Sunflower oil (Solubility in oils): >100 g of solvent solubilised in 100 g of oil or ester
- pH after adding EDM ([4]; buffer solution initial pH 3.1): 3.15
- pH at 1 month ([4]; buffer solution initial pH 3.1): 3
- pH after adding EDM [4, 7]: 4.3
- pH at 1 month [4, 7]: 4.2
- pH after adding EDM ([4]; buffer solution initial pH 5.1): 5.15
- pH at 1 month ([4]; buffer solution initial pH 5.1): 5.1
- pH after adding EDM [4, 8]: 6.2
- pH at 1 month [4, 8]: 6.1
- pH after adding EDM [4, 9]: 7.2
- pH at 1 month [4, 9]: 7.1
- pH after adding EDM ([4]; buffer solution initial pH 8.0): 8.0
- pH at 1 month ([4]; buffer solution initial pH 8.0): 8.0
- pH after adding EDM ([4]; buffer solution initial pH 9.0): 9.1
- pH at 1 month ([4]; buffer solution initial pH 9.0): 9.0
- pH after adding EDM [4, 10]: 10.0
- pH at 1 month [4, 10]: 10.0
- pH variations observed ([4]; buffer solutions pH 3 to 10, not significant): approximately 0.1 pH units
- Solubility of 1,2-butyl methoxydibenzoylmethane in the solvent [1]: >32 g of filter soluble in 100 g of final solution
- Solubility of Benzophenone-3 in the solvent [1]: >40 g of filter soluble in 100 g of final solution
- Mass of solvent to solubilise 1 g of mixture 98% water and 2% active ingredient [5, 11]: 0.9 g
- Mass of solvent to solubilise 1 g of mixture 98% water and 2% active ingredient [5, 12]: 1.7 g
- Mass of solvent to solubilise 1 g of mixture 98% water and 2% active ingredient [5, 13]: 1 g
- Mass of solvent to solubilise 1 g of mixture 98% water and 2% active ingredient ([5]; active ingredient Menthol): 0.7 g
- Mass of solvent to solubilise 1 g of mixture 98% water and 2% active ingredient [5, 14]: 2.0 g

Compound: Tocopherol [Vitamin E]
- Mass of active ingredient (g) [6]: >100 g of active ingredient soluble in 100 ml of EDM

Compound: CC(C)=CCC[C@](C)(O)C1CC=C(C)CC1 (some centres unmarked) [Bisabolol nat., Bisabolol]
- Mass of active ingredient (g) [6]: >100 g of active ingredient soluble in 100 ml of EDM

Compound: Glycerol formal [reference compound]
- Miscibility in water (Miscibility in water): Miscible
- Solubility in Medium-chain triglyceride (MCT) (Solubility in oils): <12 g of solvent solubilised in 100 g of oil or ester
- Solubility in Octyldodecanol myristate (ODM) (Solubility in oils): <12 g of solvent solubilised in 100 g of oil or ester
- Solubility in Sunflower oil (Solubility in oils): 12 g of solvent solubilised in 100 g of oil or ester

Compound: CO[C@H]1CO[C@H]2[C@@H]1OC[C@H]2OC [Arlasolve DMI, Dimethyl Isosorbide, reference compound]
- Mass of solvent to solubilise 1 g of mixture 98% water and 2% active ingredient [5, 11]: 2.3 g
- Mass of solvent to solubilise 1 g of mixture 98% water and 2% active ingredient [5, 12]: 2.3 g
- Mass of solvent to solubilise 1 g of mixture 98% water and 2% active ingredient [5, 13]: 2.2 g
- Mass of solvent to solubilise 1 g of mixture 98% water and 2% active ingredient ([5]; active ingredient Menthol): 1.7 g
- Mass of solvent to solubilise 1 g of mixture 98% water and 2% active ingredient [5, 14]: 5.0 g

Compound: 2-propyl-4-hydroxymethyl-1,3-dioxolane with 2-propyl-1,3-dioxan-5-ol [PDM]
- Miscibility in water (Miscibility in water): Miscible
- Solubility in Medium-chain triglyceride (MCT) (Solubility in oils): >100 g of solvent solubilised in 100 g of oil or ester
- Solubility in Octyldodecanol myristate (ODM) (Solubility in oils): 100 g of solvent solubilised in 100 g of oil or ester
- Solubility in Sunflower oil (Solubility in oils): >100 g of solvent solubilised in 100 g of oil or ester
- Solubility of 1,2-butyl methoxydibenzoylmethane in the solvent [1]: 22 g of filter soluble in 100 g of final solution
- Solubility of Benzophenone-3 in the solvent [1]: 18 g of filter soluble in 100 g of final solution

Compound: CCCCC(CC)COC(=O)C=Cc1ccc(OC)cc1 (centres unmarked) [Parsol MCX, Ethylhexyl methoxycinnamate]
- Mass of active ingredient (g) [6]: >100 g of active ingredient soluble in 100 ml of EDM

Compound: CC1CCC(C(C)C)C(O)C1 (centres unmarked) [Menthol]
- Mass of active ingredient (g) [6]: >100 g of active ingredient soluble in 100 ml of EDM

Compound: Retinal [Vitamin A]
- Mass of active ingredient (g) [6]: >100 g of active ingredient soluble in 100 ml of EDM

Compound: 2-butyl-1,3-dioxolane-4-hydroxymethyl and 2-butyl-1,3-dioxan-5-ol [BDM]
- water solubility (Miscibility in water; beyond that, turbidity appears): approximately 2 g in 100 g water
- Miscibility in water (Miscibility in water): not miscible in water; also recorded: Non-miscible
